Test results taken from patent US20260007802A1, “ANNEALED MICROGEL PARTICLE SYSTEMS AND METHODS” (Tempo Therapeutics, Inc., priority 2023, published 2026).

What was measured:
[1] = Chemical annealing kinetics, elastic modulus over time (Instron); format: physicochemical
Description: In the rat intradermal study (see Example 2), MAP was annealed using 0.1 mM PETMA (Pentaerythrivol tetras(2-mercaptoacetate)), a 4-thiol containing crosslinker. The thiol groups react with the free vinyl sulfones on the microgel particles in a thiol-ene Michael addition reaction. […] The optimization of the chemical annealing was performed with formulation 1-3. […] Briefly, gels initially formulated at a volume fraction of 100% was thoroughly mixed with the crosslinkers (0.1-0.2 mM) at different pHs, which led to diluting gels to 80%. The elastic modulus was measured at different time points using Instron.
Then, the different HA-MAP formulations were annealed using the selected annealing agent at 0.2 mM at pH 7.4. […] Elastic modulus over time was measured using Instron.
The final volume fraction for annealing was 80% for all annealing conditions.

3T3 fibroblasts = assay: In vitro cytocompatibility, WST-8 proliferation assay (Example 2); format: cell-based, mouse; settings: WST-8, days 1, 3 and 6
Description: Prior to animal experiments, formulations 1-3 and formulations 4-5 were tested (all in the presence and absence of annealing chemistry) for cytocompatibility using immortalized and primary cells. The WST-8 proliferation assay was used to assess cell viability and compare to positive (vehicle) and negative (cytotoxic agent) controls. The formulations used are listed in Table 5 below, along with their characteristics.
In vitro experiments were performed in well plate format. Cells were grown in culture media in adherent culture, and then exposed to either (i) hydrogel microgel particle suspensions, (ii) hydrogel microgel particle suspensions actively undergoing the annealing process, or (iii) the reaction conditions of the annealing process including soluble components but in the absence of hydrogel microgel particles. After exposure, cells were grown in adherent culture for […], measuring proliferation at 1, 3, and 6 days after exposure.
3T3 fibroblasts were grown to 90% confluent and then suspended in DMEM at 2.5×10^6 cells/mL. Then, 2 μL of cell suspension was mixed with MAP (see Table 1 for description of the different formulations tested for cytocompatibility) and added to a 96-well plate. […] Cell viability was then measured at 450 nm using WST-8 kit.

Row | SMILES | effect on kinetic of annealing and final stiffness ([1]; 0.3% wt, three batches of 4a, 0.2 mM PEG-dithiol 3.4 kDa, pH 7.4) | cytotoxic effect on cell viability (3T3 fibroblasts) | time to full annealing ([1]; annealing agent with formulations 1-3 gels, pH 7.4) | time before it is annealed ([1]; pH 6.5)
1 | CCN(CC)CC(=O)Nc1c(C)cccc1C [lidocaine] | reduces the final stiffness after annealing and slightly slows down the reaction | – | – | –
2 | O=C(CS)OCC(COC(=O)CS)(COC(=O)CS)COC(=O)CS [PETMA, Pentaerythritol tetrakis(2-mercaptoacetate)] | – | dose dependent cytotoxic effect | ≤ 5 min | < 10 min
